Tests used:
Cannabinoid receptor 1 [1] = target: T1, Cannabinoid receptor 1 (Homo sapiens, UniProt P21554); assay: Agonist activity at human CB1 receptor expressed in human SK-N-MC cells at 1 uM by CRE-beta galactosidase reporter gene assay; type: functional, cell-based
Homo sapiens [2] = species: Homo sapiens; assay: Selectivity ratio of Ki for human CB1 receptor to Ki for human CB2 receptor
Cannabinoid receptor 2 [3] = target: T2, Cannabinoid receptor 2 (Homo sapiens, UniProt P34972); assay: Agonist activity at human CB2 receptor assessed as inhibition of forskolin-induced cAMP production preincubated for 15 mins followed by forskolin challenge measured after 30 mins by HTRF assay; type: functional
T2 sequence (P34972 whole entry): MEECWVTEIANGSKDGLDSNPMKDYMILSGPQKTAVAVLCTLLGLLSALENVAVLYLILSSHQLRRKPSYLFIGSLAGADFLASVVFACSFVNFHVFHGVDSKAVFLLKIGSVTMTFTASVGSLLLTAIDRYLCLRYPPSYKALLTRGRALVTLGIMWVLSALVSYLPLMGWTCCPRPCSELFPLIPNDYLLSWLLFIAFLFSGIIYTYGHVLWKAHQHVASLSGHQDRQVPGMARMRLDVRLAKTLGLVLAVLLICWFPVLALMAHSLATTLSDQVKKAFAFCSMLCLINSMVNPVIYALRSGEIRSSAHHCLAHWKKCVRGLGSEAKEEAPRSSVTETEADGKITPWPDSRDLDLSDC

Cannabinoid receptor 2 [4] = target: T2, Cannabinoid receptor 2; assay: Agonist activity at human CB2 receptor assessed as inhibition of forskolin-induced cAMP production preincubated for 15 mins followed by forskolin challenge measured after 30 mins by HTRF assay relative to control; type: functional
Cannabinoid receptor 1 [5] = target: T1, Cannabinoid receptor 1; assay: Agonist activity at human CB1 receptor assessed as inhibition of forskolin-induced cAMP production preincubated for 15 mins followed by forskolin challenge measured after 30 mins by HTRF assay; type: functional
Cannabinoid receptor 1 [6] = target: T3, Cannabinoid receptor 1 (Rattus norvegicus, UniProt P20272); assay: Displacement of [3H]-CP55940 from CB1 receptor of rat cerebellar membranes by liquid scintillation counting in presence of serine protease inhibitor PMSF; set-up: species or system Cerebellum, Membrane
T3 sequence (P20272 whole entry): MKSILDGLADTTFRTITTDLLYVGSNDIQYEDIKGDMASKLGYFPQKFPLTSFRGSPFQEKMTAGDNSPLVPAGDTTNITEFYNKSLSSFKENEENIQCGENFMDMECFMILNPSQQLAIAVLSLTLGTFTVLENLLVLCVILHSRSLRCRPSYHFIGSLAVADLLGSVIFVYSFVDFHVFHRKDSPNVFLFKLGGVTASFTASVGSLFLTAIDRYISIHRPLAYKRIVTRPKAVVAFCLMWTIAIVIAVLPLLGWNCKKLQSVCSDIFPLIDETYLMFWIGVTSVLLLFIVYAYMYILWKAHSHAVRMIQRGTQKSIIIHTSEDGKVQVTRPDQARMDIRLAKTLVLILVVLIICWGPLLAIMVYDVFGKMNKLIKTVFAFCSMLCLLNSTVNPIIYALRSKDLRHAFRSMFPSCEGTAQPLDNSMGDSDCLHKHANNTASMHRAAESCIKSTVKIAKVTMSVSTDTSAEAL

Cannabinoid receptor 2 [7] = target: T4, Cannabinoid receptor 2 (Rattus norvegicus, UniProt Q9QZN9); assay: Displacement of [3H]-CP55940 from CB2 receptor of rat spleen membranes by liquid scintillation counting in presence of serine protease inhibitor PMSF; type: tissue-based, Membrane
T4 sequence (Q9QZN9 whole entry): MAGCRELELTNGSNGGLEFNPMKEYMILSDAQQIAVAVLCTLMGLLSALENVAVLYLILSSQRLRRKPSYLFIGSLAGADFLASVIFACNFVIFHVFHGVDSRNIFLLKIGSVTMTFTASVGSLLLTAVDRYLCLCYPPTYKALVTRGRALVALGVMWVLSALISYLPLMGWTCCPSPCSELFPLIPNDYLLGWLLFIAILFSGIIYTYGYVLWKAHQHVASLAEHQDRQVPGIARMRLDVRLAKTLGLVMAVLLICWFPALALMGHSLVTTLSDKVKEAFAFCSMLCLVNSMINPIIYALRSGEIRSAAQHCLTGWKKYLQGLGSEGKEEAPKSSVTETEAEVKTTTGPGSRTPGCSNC

Rattus norvegicus = species: Rattus norvegicus; assay: Selectivity ratio of Ki for CB2 receptor of rat spleen membranes to Ki for CB1 receptor of rat cerebellar membranes; type: tissue-based
Cannabinoid receptor 2 [8] = target: T2, Cannabinoid receptor 2; assay: Agonist activity at human CB2 receptor expressed in human SK-N-MC cells by CRE-beta galactosidase reporter gene assay; type: functional, cell-based
Cannabinoid receptor 1 [9] = target: T1, Cannabinoid receptor 1; assay: Agonist activity at human CB1 receptor expressed in human SK-N-MC cells by CRE-beta galactosidase reporter gene assay; type: functional, cell-based
[10] = Selectivity ratio of Ki for rat CB1 receptor to Ki for human CB2 receptor
Cannabinoid receptor 1 [11] = target: T1, Cannabinoid receptor 1; assay: Agonist activity at CB1 receptor (unknown origin)
Cannabinoid receptor 2 [12] = target: T2, Cannabinoid receptor 2; assay: Agonist activity at human CB2 receptor transfected in CHO-K1 cells assessed as cAMP change; type: functional, cell-based
[13] = Cmax in Sprague-Dawley rat at 10 mg/kg, po by UV-HPLC analysis; type: ADME, organism-based; set-up: dose 10 mg/kg, route oral; details: in vivo
[14] = AUC (0 to infinity) in Sprague-Dawley rat at 10 mg/kg, po by UV-HPLC analysis; type: ADME, organism-based; set-up: time infinity, dose 10 mg/kg, route oral; details: plasma
[15] = Half life in Sprague-Dawley rat at 10 mg/kg, po by UV-HPLC analysis; type: ADME, organism-based; set-up: dose 10 mg/kg, route oral; details: in vivo
Cannabinoid receptor 2 [16] = target: T2, Cannabinoid receptor 2; assay: Agonist activity at human CB2 receptor expressed in Sf9 membranes assessed as effect on [35S]-GTPgammaS binding after 30 mins by scintillation counting; type: functional, cell membranes
Cannabinoid receptor 1 [17] = target: T1, Cannabinoid receptor 1; assay: Agonist activity at human CB1 receptor
Cannabinoid receptor 2 [18] = target: T2, Cannabinoid receptor 2; assay: Agonist activity at human CB2 receptor
Cannabinoid receptor 1 [19] = target: T1, Cannabinoid receptor 1; assay: Binding affinity to CB1 receptor (unknown origin)
Cannabinoid receptor 1 [20] = target: T1, Cannabinoid receptor 1; assay: Binding affinity to human CB1 receptor
Cannabinoid receptor 2 [21] = target: T2, Cannabinoid receptor 2; assay: Binding affinity to human CB2 receptor
Cannabinoid receptor 1 [22] = target: T1, Cannabinoid receptor 1; assay: Displacement of [3H]-CP55940 from human CB1 receptor by liquid scintillation counting
Cannabinoid receptor 1 [23] = target: T3, Cannabinoid receptor 1; assay: Displacement of [3H]-CP55940 from CB1 receptor of rat brain
Cannabinoid receptor 2 [24] = target: T2, Cannabinoid receptor 2; assay: Displacement of [3H]-CP55940 from human CB2 receptor expressed in HEK cells by liquid scintillation counting; type: cell-based, HEK293
Cannabinoid receptor 2 [25] = target: T4, Cannabinoid receptor 2; assay: Inverse agonist activity at rat CB2 receptor expressed in CHO-K1 cells assessed as inhibition of forskolin-induced cAMP accumulation; type: functional, cell-based
Cannabinoid receptor 1 [26] = target: T1, Cannabinoid receptor 1; assay: Agonist activity at human CB1 receptor transfected in CHO-K1 cells assessed as cAMP change; type: functional, cell-based
Homo sapiens [27] = species: Homo sapiens; assay: Selectivity index, ratio of EC50 for human CB1 receptor to EC50 for human CB2 receptor

T1 sequence (P21554 whole entry): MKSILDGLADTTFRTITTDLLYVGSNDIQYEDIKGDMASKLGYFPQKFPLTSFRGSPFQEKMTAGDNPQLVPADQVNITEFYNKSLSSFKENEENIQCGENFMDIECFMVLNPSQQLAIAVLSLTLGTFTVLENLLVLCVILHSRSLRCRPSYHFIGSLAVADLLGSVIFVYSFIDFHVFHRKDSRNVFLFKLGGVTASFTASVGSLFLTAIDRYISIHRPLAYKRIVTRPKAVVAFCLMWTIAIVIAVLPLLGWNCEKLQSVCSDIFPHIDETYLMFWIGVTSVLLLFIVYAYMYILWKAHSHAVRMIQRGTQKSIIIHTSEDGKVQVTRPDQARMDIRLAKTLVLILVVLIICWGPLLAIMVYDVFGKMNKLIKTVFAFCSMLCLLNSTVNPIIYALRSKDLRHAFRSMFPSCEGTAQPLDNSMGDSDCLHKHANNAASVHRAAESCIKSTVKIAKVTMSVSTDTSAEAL

In the case of `O=C(NCC12CC3CC(CC(C3)C1)C2)c1nn(C2CCCCC2)c2c1CCCCCC2`, the Activity (Cannabinoid receptor 1 [1]) is reported as 71%.

For `CCCCCCC(C)(C)c1cc(OC)c2c(c1)OC(C)(C)[C@@H]1CC=C(C)C[C@@H]21`, the Ratio Ki (Homo sapiens [2]) was > 790.

With `CC(NC(=O)c1nc(N2CCOCC2)n2ccccc12)C(C)(C)C` (stereo not given) the EC50 (Cannabinoid receptor 2 [3]) was 5.4 nM, the Emax (Cannabinoid receptor 2 [4]) was 99.5% and the EC50 (Cannabinoid receptor 1 [5]) was > 17000 nM. For the same molecule, the Ratio Ki (Homo sapiens [2]) was > 3100.

With `Cc1sc(NC(=O)N2CCCN(C(=O)C3CCC(F)(F)CC3)CC2)nc1C(C)(C)C` the EC50 (Cannabinoid receptor 2 [3]) was 0.7 nM.

With `COc1ccc(-c2nnc(NC(=O)C(C)(C)S(=O)(=O)C3CCOCC3)[nH]2)cc1` the EC50 (Cannabinoid receptor 1 [5]) was > 20000 nM.

For `C=C1CC[C@@H]2[C@@H](C1)c1c(OC)cc(C(C)(C)CCCCCC)cc1OC2(C)C`, the Ratio Ki (Homo sapiens [2]) was > 1000.

In the case of `CCCCC/C=C\C/C=C\C/C=C\C/C=C\CCCC(=O)NCCCl`, the Ki (Cannabinoid receptor 1 [6]) is reported as 1.4 nM, the Ki (Cannabinoid receptor 2 [7]) is reported as > 2000 nM and the Ratio Ki (Rattus norvegicus) is reported as > 1430.

For `CCCCCCC(C)(C)c1cc(O)c2c(c1)OC(C)(C)C1CCC(=O)CC21` (stereo not given), the Ratio Ki (Homo sapiens [2]) was 1.2.

For `CC(C)(CO)c1cc(NC(=O)C(C)(C)S(=O)(=O)C2CCOCC2)on1`, the EC50 (Cannabinoid receptor 1 [5]) was > 50000 nM.

In the case of `O=C(N[C@H](CO)c1ccccc1)c1n[nH]c2c1CCCC[C@H]2Cc1cccc(Cl)c1`, the EC50 (Cannabinoid receptor 2 [8]) is reported as 12 nM and the EC50 (Cannabinoid receptor 1 [9]) is reported as > 5000 nM.

`CCCC(C)(C)c1ccc2c(c1)OC(C)(C)[C@@H]1CC=C(C)C[C@@H]21` gave a Ratio Ki [10] of 200.

Molecule `CCc1c(C)cc(C(=O)NC2(C(=O)O)CCCCC2)c(=O)n1Cc1ccc(F)cc1` [S-777469] has a Ki (Cannabinoid receptor 1 [11]) of 4600 nM.

Molecule `CC1CN1S(=O)(=O)c1ccc2c(c1)C1(OCCCO1)C(=O)N2CC1CC1` (stereo not given) has an EC50 (Cannabinoid receptor 2 [12]) of 2 nM.

`CC(C)(CO)NC(=O)c1nn(-c2ccc(Cl)cc2)c2c1C1CCC2C1` (stereo not given) showed a Cmax [13] of 1950 ng/mL, an AUC(0-inf) [14] of 12000 ng·h/mL and a half-life [15] of 4.8 h.

For `CC(C)(C)NC(=O)c1nn(-c2ccc(Cl)cc2)c2c1C1CCC2C1` (stereo not given), the Cmax [13] was 131 ng/mL, the AUC(0-inf) [14] was 1550 ng·h/mL and the half-life [15] was 7.3 h.

`COCCN1CC(C)(C)S/C1=N\C(=O)c1cc(Cl)ccc1OC` gave a Ratio Ki (Homo sapiens [2]) of 10.

For `COc1ccc(C(=O)c2cc3cc(C)n(CCN4CCOCC4)c3s2)cc1`, the EC50 (Cannabinoid receptor 2 [16]) was < 100 nM.

`COc1ccc2c(c1)c(CCN1CCOCC1)c(C)n2C(=O)c1cccc(Cl)c1Cl` showed a Ki (Cannabinoid receptor 1 [17]) of 4800 nM and a Ki (Cannabinoid receptor 2 [18]) of 3.8 nM.

In the case of `CCCn1c(C)c(C(=O)c2cccc3cc(OC)ccc23)c2ccccc21`, the Ki (Cannabinoid receptor 1 [19]) is reported as > 10000 nM.

In the case of `Clc1ccc(-c2nc(N3CCCCC3)c3ccccc3n2)c(Cl)c1`, the Ki (Cannabinoid receptor 2 [3]) is reported as < 1000 nM.

`CCCCCCC(C)(C)c1cc(O)c([C@H]2CC(=O)[C@H]3C[C@@H]2C3(C)C)c(OC(=O)/C=C/C(=O)O)c1` [PRS-211375] showed a Ki (Cannabinoid receptor 1 [20]) of 334 nM, a Ki (Cannabinoid receptor 2 [21]) of 9 nM and a Ratio Ki (Homo sapiens [2]) of 37.

`CN1CCCCC1Cn1cc(C(=O)c2cc([N+](=O)[O-])ccc2I)c2ccccc21` (racemic) gave a Ki (Cannabinoid receptor 1 [22]) of 580 nM, a Ki (Cannabinoid receptor 1 [23]) of 280 nM and a Ki (Cannabinoid receptor 2 [24]) of 7.1 nM. It also gave an EC50 (Cannabinoid receptor 2 [25]) of 216 nM.

In the case of `CCC(C)Cn1c(C(C)(C)C)nc2cc(S(=O)(=O)c3ccnc(F)c3)ccc21` (stereo not given), the EC50 (Cannabinoid receptor 2 [12]) is reported as 0.26 nM, the EC50 (Cannabinoid receptor 1 [26]) is reported as > 10000 nM and the Ratio EC50 (Homo sapiens [27]) is reported as > 38000.

Work on `CCCCC/C=C\C/C=C\C/C=C\C/C=C\CCCCOC(CO)CO` yielded a Ki (Cannabinoid receptor 2 [21]) of 3000 nM.

In the case of `CC(=O)N1CCC(Cn2c(C(C)(C)C)nc3cc(S(=O)(=O)C4CCCC4)ccc32)CC1`, the EC50 (Cannabinoid receptor 2 [3]) is reported as 3 nM.

For `CN(C1CCOCC1)C(C)(C)C(=O)Nc1cc(C(C)(C)CO)no1`, the EC50 (Cannabinoid receptor 1 [5]) was > 50000 nM.

In the case of `CCCn1c(C)c(C(=O)c2cc3ccsc3n2CCC)c2ccccc21`, the EC50 (Cannabinoid receptor 2 [16]) is reported as < 100 nM.

From ChEMBL document CHEMBL3232786, “Therapeutic utility of cannabinoid receptor type 2 (CB(2)) selective agonists” (J Med Chem, 2013)
